Data on 23 compounds can be found in patent US8268859B2, “Glucocorticoid mimetics, methods of making them, pharmaceutical compositions and uses thereof” (Boehringer Ingelheim International GmbH, priority 2008, dated 2012).

The target in the first series is human recombinant CYP3A4 (Homo sapiens, UniProt P08684). Kind of series: Cytochrome P450 inhibition assay (substrate 7-benzyloxy-4-(trifluoromethyl)coumarin).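 Note: compounds preincubated at least 10 min at 37 °C before adding enzyme plus substrate, reaction run 30 min at 37 °C, ketoconazole standard curve on every plate.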 In kind it is in vitro ADME. The settings on record: Table 2.
Sequence of human recombinant CYP3A4 (P08684 whole entry): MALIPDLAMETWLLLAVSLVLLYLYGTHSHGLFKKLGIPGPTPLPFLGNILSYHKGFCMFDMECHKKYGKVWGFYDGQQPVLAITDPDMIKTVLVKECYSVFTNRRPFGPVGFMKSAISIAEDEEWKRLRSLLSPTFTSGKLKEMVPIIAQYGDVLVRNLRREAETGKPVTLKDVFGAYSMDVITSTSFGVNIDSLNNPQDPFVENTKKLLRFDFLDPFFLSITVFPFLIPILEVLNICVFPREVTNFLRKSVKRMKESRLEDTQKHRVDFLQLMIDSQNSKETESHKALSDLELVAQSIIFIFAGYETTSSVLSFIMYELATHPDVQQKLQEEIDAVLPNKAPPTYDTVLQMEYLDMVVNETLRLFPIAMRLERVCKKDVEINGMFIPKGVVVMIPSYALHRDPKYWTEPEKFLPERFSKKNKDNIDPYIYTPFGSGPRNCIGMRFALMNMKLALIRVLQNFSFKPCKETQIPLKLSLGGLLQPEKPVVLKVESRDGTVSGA
On to `CC(C)(CC(O)(Cc1cc2ccncc2[nH]1)C(F)(F)F)c1ccccc1` (stereo not drawn) [Compound 7, reference compound], for which the “CYP inhibition (in words)” value is “potent CYP inhibitor”.

Still in this series, the particulars now being: Table 2, comparison compounds; read-out: CYP3A4 Inhibition IC50.
For the compound `CC(C)(CC(O)(Cc1cc2ccncc2[nH]1)C(F)(F)F)c1ccccc1C(N)=O` (stereo not drawn) [Compound 5, reference compound], the IC50 is 510 nM.
Regarding `CC(C)(CC(O)(Cc1cc2ccncc2[nH]1)C(F)(F)F)c1ccccc1S(C)(=O)=O` (stereo not drawn) [Compound 2, reference compound], the IC50 is 180 nM.
`CC(C)(CC(O)(Cc1cc2ccncc2[nH]1)C(F)(F)F)c1ccccc1` (stereo not drawn) [Compound 7, reference compound]: the IC50 worked out at 900 nM.

The target in another series is T1, human glucocorticoid receptor (GR) complex (Homo sapiens, UniProt P04150).
T1 construct: made in house; host or cells: insect expression system (baculovirus lysate)
T1 sequence (P04150 1-777): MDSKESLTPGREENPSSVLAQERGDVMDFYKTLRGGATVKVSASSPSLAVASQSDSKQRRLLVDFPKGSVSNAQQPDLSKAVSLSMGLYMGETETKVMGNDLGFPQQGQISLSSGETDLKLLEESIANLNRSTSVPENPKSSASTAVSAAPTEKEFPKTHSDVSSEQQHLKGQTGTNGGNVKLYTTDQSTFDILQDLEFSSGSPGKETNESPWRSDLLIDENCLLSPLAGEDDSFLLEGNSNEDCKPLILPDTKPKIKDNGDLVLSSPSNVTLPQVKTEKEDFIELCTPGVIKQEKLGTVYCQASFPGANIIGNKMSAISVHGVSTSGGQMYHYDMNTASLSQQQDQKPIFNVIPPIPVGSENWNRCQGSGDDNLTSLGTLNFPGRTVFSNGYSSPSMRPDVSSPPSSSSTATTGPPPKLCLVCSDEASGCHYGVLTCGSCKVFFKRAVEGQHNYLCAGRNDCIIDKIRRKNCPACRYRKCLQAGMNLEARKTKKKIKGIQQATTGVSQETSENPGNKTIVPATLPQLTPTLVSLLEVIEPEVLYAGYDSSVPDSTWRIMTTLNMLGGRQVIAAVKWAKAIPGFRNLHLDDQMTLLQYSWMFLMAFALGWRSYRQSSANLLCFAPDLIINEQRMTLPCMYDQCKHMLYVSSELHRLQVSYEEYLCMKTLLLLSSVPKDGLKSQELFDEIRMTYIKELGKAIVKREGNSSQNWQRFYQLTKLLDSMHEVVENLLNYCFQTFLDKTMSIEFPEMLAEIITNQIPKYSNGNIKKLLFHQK
The series is described as follows: Glucocorticoid receptor fluorescence polarization competitive binding assay.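 Note: GR complex expressed in an insect system, wells lacking compound give full signal, excess unlabeled dexamethasone defines the blank, IC50 from logistic curve fit of polarization.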
Conditions: not given
The compound `CC(C)(C[C@@](O)(Cc1cc2cc(S(C)(=O)=O)ncc2[nH]1)C(F)(F)F)c1ccc(Cl)cc1S(C)(=O)=O` [drawing 13, (R)-4-(4-Chloro-2-methanesulfonylphenyl)-1,1,1-trifluoro-2-(5-methanesulfonyl-1H-pyrrolo[2,3-c]pyridin-2-ylmethyl)-4-methylpentan-2-ol] gave an IC50 of 36 nM.
Compound `CC(C)(CC(O)(Cc1cc2cc(S(C)(=O)=O)ncc2[nH]1)C(F)(F)F)c1cc(Cl)ccc1S(C)(=O)=O` (stereo not drawn) [4-(5-Chloro-2-methanesulfonylphenyl)-1,1,1-trifluoro-2-(5-methanesulfonyl-1H-pyrrolo[2,3-c]pyridin-2-ylmethyl)-4-methylpentan-2-ol] had an IC50 of 10 nM.

The same series, now with this note: Table 1; competition with TAMRA-labeled dexamethasone; read-out: GR IC50.
With `CCS(=O)(=O)c1cc2cc(CC(O)(CC(C)(C)c3ccc(F)cc3S(C)(=O)=O)C(F)(F)F)[nH]c2cn1` (stereo not drawn) [drawing 16, 2-(5-Ethanesulfonyl-1H-pyrrolo[2,3-c]pyridin-2-ylmethyl)-1,1,1-trifluoro-4-(4-fluoro-2-methanesulfonylphenyl)-4-methylpentan-2-ol], the concentration for half-maximal inhibition (IC50) was 29 nM.
Turning to `CCS(=O)(=O)c1cc2cc(CC(O)(CC(C)(C)c3ccc(Cl)cc3S(C)(=O)=O)C(F)(F)F)[nH]c2cn1` (stereo not drawn) [drawing 15, 4-(4-Chloro-2-methanesulfonylphenyl)-2-(5-ethanesulfonyl-1H-pyrrolo[2,3-c]pyridin-2-ylmethyl)-1,1,1-trifluoro-4-methylpentan-2-ol], the IC50 was determined as 39 nM.
`CC(C)(CC(O)(Cc1cc2cc(S(C)(=O)=O)ncc2[nH]1)C(F)(F)F)c1cc(F)ccc1S(C)(=O)=O` (stereo not drawn) [1,1,1-Trifluoro-4-(5-fluoro-2-methanesulfonylphenyl)-2-(5-methanesulfonyl-1H-pyrrolo[2,3-c]pyridin-2-ylmethyl)-4-methylpentan-2-ol]: the IC50 stood at 19 nM.
As for `CC(C)S(=O)(=O)c1cc2cc(CC(O)(CC(C)(C)c3cc(F)ccc3S(C)(=O)=O)C(F)(F)F)[nH]c2cn1` (stereo not drawn) [1,1,1-Trifluoro-4-(5-fluoro-2-methanesulfonylphenyl)-4-methyl-2-[5-(propane-2-sulfonyl)-1H-pyrrolo[2,3-c]pyridin-2-ylmethyl]pentan-2-ol], the IC50 came out at 71 nM.
Regarding `CCCS(=O)(=O)c1cc2cc(CC(O)(CC(C)(C)c3cc(F)ccc3S(C)(=O)=O)C(F)(F)F)[nH]c2cn1` (stereo not drawn) [1,1,1-Trifluoro-4-(5-fluoro-2-methanesulfonylphenyl)-4-methyl-2-[5-(propane-1-sulfonyl)-1H-pyrrolo[2,3-c]pyridin-2-ylmethyl]pentan-2-ol], the IC50 stood at 13 nM.
For `CCS(=O)(=O)c1cc2cc(CC(O)(CC(C)(C)c3cc(C)ccc3C(N)=O)C(F)(F)F)[nH]c2cn1` (stereo not drawn) [4-Methyl-2-[4,4,4-trifluoro-3-hydroxy-3-(5-ethanesulfonyl-1H-pyrrolo[2,3-c]pyridin-2-ylmethyl)-1,1-dimethylbutyl]benzamide], the IC50 stood at 38 nM.
In the case of `CCS(=O)(=O)c1cc2cc(CC(O)(CC(C)(C)c3ccc(C)cc3C(N)=O)C(F)(F)F)[nH]c2cn1` (stereo not drawn) [2-[3-(5-Ethanesulfonyl-1H-pyrrolo[2,3-c]pyridin-2-ylmethyl)-4,4,4-trifluoro-3-hydroxy-1,1-dimethylbutyl]-5-methylbenzamide], the IC50 is 80 nM.
As for `Cc1ccc(C(C)(C)CC(O)(Cc2cc3cc(S(=O)(=O)C(C)C)ncc3[nH]2)C(F)(F)F)c(C(N)=O)c1` (stereo not drawn) [5-Methyl-2-{4,4,4-trifluoro-3-hydroxy-1,1-dimethyl-3-[5-(propane-2-sulfonyl)-1H-pyrrolo[2,3-c]pyridin-2-ylmethyl]butyl}benzamide], the IC50 came to 250 nM.
On the same count and under the same terms, with `CC(C)(C[C@@](O)(Cc1cc2nc(S(C)(=O)=O)ccc2[nH]1)C(F)(F)F)c1ccccc1C(N)=O` [2-[(R)-4,4,4-Trifluoro-2-hydroxy-3-(5-meethanesulfonyl-1H-pyrrolo[3,2-b]pyridin-2-ylmethyl)-1,1-dimethylbutyl]benzamide] the figure was 32 nM; with `CCS(=O)(=O)c1cc2cc(CC(O)(CC(C)(C)c3ccccc3S(N)(=O)=O)C(F)(F)F)[nH]c2cn1` (stereo not drawn) [2-[3-(5-Ethanesulfonyl-1H-pyrrolo[2,3-c]pyridin-2-ylmethyl)-4,4,4-trifluoro-3-hydroxy-1,1-dimethylbutyl]benzenesulfonamide], 140 nM.
On to `CCS(=O)(=O)c1cc2cc(CC(O)(CC(C)(C)c3ccccc3S(C)(=O)=O)C(F)(F)F)[nH]c2cn1` (stereo not drawn) [2-(5-Ethanesulfonyl-1H-pyrrolo[2,3-c]pyridin-2-ylmethyl)-1,1,1-trifluoro-4-(2-methanesulfonylphenyl)-4-methylpentan-2-ol], for which the IC50 was 44 nM.
As for `CCS(=O)(=O)c1cc2cc(CC(O)(CC(C)(C)c3cccc(F)c3S(C)(=O)=O)C(F)(F)F)[nH]c2cn1` (stereo not drawn) [2-(5-Ethanesulfonyl-1H-pyrrolo[2,3-c]pyridin-2-ylmethyl)-1,1,1-trifluoro-4-(3-fluoro-2-methanesulfonylphenyl)-4-methylpentan-2-ol], the IC50 turned out to be 55 nM.
As for `CC(C)(CC(O)(Cc1cc2cc(S(C)(=O)=O)ncc2[nH]1)C(F)(F)F)c1cc(F)ccc1Br` (stereo not drawn) [4-(2-Bromo-5-fluorophenyl)-1,1,1-trifluoro-2-(5-methanesulfonyl-1H-pyrrolo[2,3-c]pyridin-2-ylmethyl)-4-methylpentan-2-ol], the IC50 was 6 nM.
As for `Cc1ccc(C(N)=O)c(C(C)(C)CC(O)(Cc2cc3cc(S(C)(=O)=O)ncc3[nH]2)C(F)(F)F)c1` (stereo not drawn) [4-Methyl-2-[4,4,4-trifluoro-3-hydroxy-3-(5-methanesulfonyl-1H-pyrrolo[2,3-c]pyridin-2-ylmethyl)-1,1-dimethylbutyl]benzamide], the IC50 turned out to be 44 nM.
On to `CC(C)(C[C@@](O)(Cc1cc2cc(S(C)(=O)=O)ncc2[nH]1)C(F)(F)F)c1ccc(F)cc1S(C)(=O)=O` [drawing 10, (R)-1,1,1-Trifluoro-4-(4-fluoro-2-methanesulfonylphenyl)-2-(5-methanesulfonyl-1H-pyrrolo[2,3-c]pyridin-2-ylmethyl)-4-methylpentan-2-ol], for which the IC50 amounted to 28 nM.
With `Cc1ccc(C(C)(C)CC(O)(Cc2cc3nc(S(C)(=O)=O)ccc3[nH]2)C(F)(F)F)c(C(N)=O)c1` (stereo not drawn) [5-Methyl-2-[4,4,4-trifluoro-3-hydroxy-3-(5-methanesulfonyl-1H-pyrrolo[3,2-b]pyridin-2-ylmethyl)-1,1-dimethylbutyl]benzamide], the IC50 is 58 nM.
For the compound `CC(C)(CC(O)(Cc1cc2cc(S(C)(=O)=O)ncc2[nH]1)C(F)(F)F)c1cc(F)ccc1O` (stereo not drawn) [4-Fluoro-2-[4,4,4-trifluoro-3-hydroxy-3-(5-methanesulfonyl-1H-pyrrolo[2,3-c]pyridin-2-ylmethyl)-1,1-dimethylbutyl]phenol], the IC50 was 25 nM.
The same measure, in the same setting: for `CCS(=O)(=O)c1cc2cc(CC(O)(CC(C)(C)c3ccc(Cl)cc3C(N)=O)C(F)(F)F)[nH]c2cn1` (stereo not drawn) [5-Chloro-2-[3-(5-ethanesulfonyl-1H-pyrrolo[2,3-c]pyridin-2-ylmethyl)-4,4,4-trifluoro-3-hydroxy-1,1-dimethylbutyl]benzamide] the value was 44 nM.
